The results in this text go back to PMC7563019 (Acta Pharmaceutica Sinica. B, 2020).

Some results are limits rather than exact numbers.

This assay concerns the target LSD1 (Homo sapiens, UniProt O60341). In words: LSD1 enzymatic assay. The format is biochemical. As to conditions: for inhibition at 1 µM: read-out: Inhibition rate (%) at 1 μmol/L against LSD1.

Consider `Cc1ccc(Nc2nc(SCc3cn(CC(=O)NC(=O)Nc4ccccn4)nn3)nc(-c3ccc(Cl)cc3)c2C#N)cc1` [Compound 14c], for which 531 ± 2 nM corresponded to half-maximal inhibition (IC50), the “fold stronger LSD1 inhibitory activity than compound 14a” value was “about 3.5 fold” and the inhibition at 1 µM was 91.4%.

For the molecule `Cc1ccc(-c2nc(SCc3cn(CC(=O)NC(=O)Nc4ccccn4)nn3)nc(Nc3cccc(Cl)c3)c2C#N)cc1` [Compound 14p], the midpoint of inhibition, the IC50, lay at 232 ± 2 nM. `C#CCSc1nc(Nc2ccc(C)cc2)c(C#N)c(-c2ccccc2)n1` [Compound 7f]: the IC50 was more than 64000 nM. For the molecule `Cc1ccc(Nc2nc(SCc3cn(CC(=O)NC(=O)Nc4ccccn4)nn3)nc(-c3ccc(Br)cc3)c2C#N)cc1` [Compound 14d], the IC50 is 3820 ± 582 nM and the inhibition at 1 µM amounted to 46.3%.

In turn, `Cc1ccc(Nc2nc(SCC(=O)NC(=O)Nc3ccccn3)nc(-c3ccc(C(C)C)cc3)c2C#N)cc1` [Compound 16b] returned a half-inhibitory concentration (IC50) of more than 125000 nM. The same measure, in the same setting: the result for `N#Cc1c(Nc2ccc(Cl)cc2)nc(SCc2cn(Cc3ccccc3Cl)nn2)nc1-c1ccccc1` [Compound 10b] reads 628 ± 27 nM; that for `N#Cc1c(Nc2cccc(Cl)c2)nc(SCc2cn(Cc3ccccc3Cl)nn2)nc1-c1ccccc1` [Compound 10c], 6310 ± 719 nM.
